In article PMC6225339 (Journal of the American Chemical Society, 2018):
Structures can show the parent of a compound that is named as a salt.

Tests used:
[1] = tested on: H9C2 cardiomyocytes; assay type: cell-based, rat
[2] = tested on: H9C2 cardiomyocytes; conditions: Dox only, 24 h, CCK-8

SMILES | protection of H9C2 viability against Dox (control studies) [1] | concentration inducing cytotoxicity in H9C2 cardiomyocytes [2] [nM]
N[C@@H](CS)C(=O)O [Cys, cysteine] | no protective effect | –
COc1cccc2c1C(=O)c1c(O)c3c(c(O)c1C2=O)C[C@@](O)(C(=O)CO)C[C@@H]3O[C@H]1C[C@H](N)[C@H](O)[C@H](C)O1 [Dox, Doxorubicin hydrochloride] | – | ≥ 2500
C1COCCN1.COc1ccc(P(=S)(S)N2CCOCC2)cc1 (stereo not drawn) [GYY4137] | no effect on viability | –
